We go through one molecule from US20230404981A1, “[…] ACTIVE COMPOUND FORMULATIONS” (priority 2020, published 2023).

The nature of the series: in vivo. As to conditions: Sprague Dawley, rat; for AUC(0-t) / Cmax / Tmax: im.

Experimental: An in vivo pharmacology study was completed in Sprague Dawley rats over 14 days, to determine the drug release kinetics of 50, 100, or 200 mg/kg doses of niclosamide administered as intramuscular injections of an aqueous dispersion of niclosamide nanoparticles.
Each animal received two 0.2 mL injections, one in each thigh, of one of the 25, 50, or 100 mg/kg of niclosamide dispersions for a total dose of 50, 100, or 200 mg/kg of niclosamide in each animal.
Blood samples were taken via tail vein bleed 1, 3, 6 and 24 hours post dose followed by bleeds at day 3, 4, 7 and 14. Niclosamide concentrations from the plasma samples were quantified utilising a previously validated liquid chromatography mass spectrometry (LCMS) method.

Turning to `O=C(Nc1ccc([N+](=O)[O-])cc1Cl)c1cc(Cl)ccc1O` [niclosamide, 5-chloro-N-(2-chloro-4-nitrophenyl)-2-hydroxybenzamide], the concentration at 24 h amounted to 140000 ng/g. In addition, where the note is “50 mg/kg”, the AUC(0-t) is 24800 ng·h/mL, the Cmax was 1410 ng/mL and the Tmax came out at 2.5 h. Moreover, under “100 mg/kg”, the AUC(0-t) worked out at 47500 ng·h/mL, the Cmax was determined as 2040 ng/mL and the Tmax amounted to 2 h. Under “200 mg/kg”, the AUC(0-t) amounted to 58300 ng·h/mL, the highest level (Cmax) was 3130 ng/mL and the Tmax stood at 3 h.

As a reminder, the AUC(0-t) is exposure summed from dosing to a finite time, without extrapolation to infinity. A lower AUC(0-t) goes with low exposure. For orientation: Cmax means the maximum level reached in the sampled fluid or tissue. The Tmax is the time at which the peak concentration occurs.
